Source: a melting point compilation (Tetko et al.; mined from patent text by program, amines drawn as free bases though some values may be those of a salt)

SMILES	melting point [°C]
COC(=O)CN(C(=O)CSc1nc2c(F)c(F)cc(F)c2s1)c1ccccc1	145 to 147
N#CC(=O)c1ccccc1Cl	33
O=C(Cn1c(=O)c(=O)[nH]c2cc([N+](=O)[O-])c(-n3cccc3)cc21)NCc1ccccc1	> 300
NS(=O)(=O)c1cc(C(=O)OCC(=O)NCCO[N+](=O)[O-])c(NCc2ccco2)cc1Cl	135
CC1(C)OCC(CONC(=O)c2ccc(F)c(F)c2Nc2ccc(I)cc2F)O1 (stereo not drawn)	114 to 115
CC(C)(C)c1ccc(/C=C/C(=O)Nc2cccc(OCC(=O)O)c2)cc1	166 to 172
N#Cc1ccccc1-c1ccc(CN2C(=O)c3ccccc3C2=O)cc1	150 to 153
N#Cc1cnn2c1N(C(=O)CN1CCN(C(=O)Nc3ccc(Cl)c(Cl)c3)CC1)CC=C2c1cccc(C(F)(F)F)c1	204 to 206
CC(C(=O)O)c1ccc(Oc2ccccc2F)cc1 (stereo not drawn)	106 to 108
O=Cc1c(Cl)cc(Cl)cc1OCc1ccc(F)cc1	107 to 108
O=C1N(Cc2ccc(Cl)cc2)c2ccccc2C1(O)CC(F)(F)c1cccs1 (stereo not drawn)	121 to 123
CCN1CCN(c2c(F)c(N)c3c(=O)c(C(=O)O)cn(C4CC4)c3c2F)CCC1=O	276 to 278
COc1ccc(S(=O)(=O)Nc2ccccc2NC(=O)c2ccccc2C)cc1	129 to 130
COc1ccc(C(=O)Nc2ccc(S(N)(=O)=O)cc2)c(SSc2cc(OC)ccc2C(=O)Nc2ccc(S(N)(=O)=O)cc2)c1	315 to 316
CC1(C)C(=O)NC(=O)c2cc(NC(N)=O)ccc21	260 to 264
O=C(Nc1cccc(S(=O)(=O)NCc2ccncc2)c1)c1cnn2c(C(F)F)cc(-c3ccc(C(F)(F)F)cc3)nc12	221
O=C(O)c1ccc2c(c1)S(=O)(=O)c1ccccc1O2	286
COC(=O)C=Cc1cc(C(=O)O)ccc1NC(=O)NC(=O)c1cc(F)c(F)cc1Cl	99
CC(C)(C)OC(=O)Cc1n[nH]c(=O)c2ccccc12	164 to 166

SMILES	melting point [°C]
CS(=O)(=O)c1ccc(-c2onc3c2-c2ccccc2CC3)cc1	181 to 182
CCCCc1nc(I)c(C=O)[nH]1	80 to 85
CN(C)/C=C1/C(=O)N(C(=O)OC(C)(C)C)C2C3=C(CCCC3(C)C)CC12 (stereo not drawn)	170 to 172
Oc1ccc2c(c1O)C(Cc1ccnc3ccccc13)c1ccccc1-2 (stereo not drawn)	244 to 246
Cc1ccc(N(c2ccc(C)c(C)c2)c2cccc3ccccc23)cc1C	125 to 127
NC(Cc1ccccc1F)=NO	85 to 87
C[C@@](O)(CO)COc1cccc(-c2noc3ccsc23)c1	97 to 98
COc1ccc2c(c1)c(Cc1cc(=O)n(-c3ccccc3)[nH]1)c(C)n2C(=O)c1ccc(Cl)cc1	148 to 150
O=C(Nc1ccc(C(=O)N2Cc3ccccc3Cc3ccccc32)cc1)c1sc2ccccc2c1Cl	252 to 254
CCOC(=O)c1c(C(F)(F)F)nc(C(F)F)c(C=O)c1CC	63.5 to 65
CS(=O)(=O)c1ccc(-c2cnn(-c3cccc(Cl)c3)c(=O)c2Cc2cccc(F)c2)cc1	142 to 143
COc1ccc2c(c1)C(=O)N(c1ccc3c(c1)CCCN3C)C2	123 to 127
O=c1c2ccccc2[nH]n1CSc1ccccc1	167 to 168
Cn1c(=O)c2[nH]c(C=Cc3cccc([N+](=O)[O-])c3)nc2n(C)c1=O	> 300
COC(=O)C(F)=CCS(=O)(=O)c1ccccc1	104 to 105
NC(=O)NNc1c(Cl)cccc1Cl	288 to 290
Cc1c(Br)cc(Br)c(NC(=O)CBr)c1Br	207 to 209
CCN(CC)C(=O)n1cnc(S(=O)(=O)CC2CCCC2)n1	77 to 79
O=C(c1ccncc1)[N+]1([O-])CCC(C(O)(c2ccc(Cl)cc2)c2nccs2)CC1 (stereo not drawn)	215 to 217
